The subject of experiment [1] is TsH1. The experiment in a line: Compound was evaluated for the growth inhibition of TsH1 cells in an enriched eagles minimal essential medium, medium lacking asparagine at a concentration of 0.01 mg/mL (0.04 mM); Heavy growth. Type of experiment: functional, cell-based. As to conditions: Cricetulus griseus.
Experiment [2] deals with TsH1. Put plainly: Compound was evaluated for the growth inhibition of TsH1 cells in an enriched eagles minimal essential medium, medium lacking aspartic acid at a concentration of 0.01 mg/mL (0.04 mM); Heavy growth. Format: functional, cell-based. As to conditions: Cricetulus griseus.
Experiment [3] has as its system TsH1. The experiment in a line: Compound was evaluated for the growth inhibition of TsH1 cells in an enriched eagles minimal essential medium, medium lacking aspartic acid and asparagine at a concentration of 1.0 mg/mL (4.65 mM); Cells dead. Type of experiment: functional, cell-based. As to conditions: Cricetulus griseus.
Experiment [4] concerns TsH1. The experiment in a line: Compound was evaluated for the growth inhibition of TsH1 cells in an enriched eagles minimal essential medium, medium lacking aspartic acid and asparagine at a concentration of 0.04 mg/mL (0.19 mM); Heavy growth. Format: functional, cell-based. Conditions: Cricetulus griseus.
In experiment [5] the test system is TsH1. Put plainly: Compound was evaluated for the growth inhibition of TsH1 cells in an enriched eagles minimal essential medium, complete medium at a concentration of 1.0 mg/mL (4.65 mM); Medium growth. Type of experiment: functional, cell-based. Conditions: Cricetulus griseus.
Experiment [6] concerns TsH1. The experiment in a line: Compound was evaluated for the growth inhibition of TsH1 cells in an enriched eagles minimal essential medium, medium lacking aspartic acid and asparagine at a concentration of 0.01 mg/mL (0.04 mM); Heavy growth. As to conditions: Cricetulus griseus. Type of experiment: functional, cell-based.
Experiment [7] has as its system TsH1. The experiment in a line: Compound was evaluated for the growth inhibition of TsH1 cells in an enriched eagles minimal essential medium, complete medium at a concentration of 0.2 mg/mL (0.93 mM); Heavy growth. Type of experiment: functional, cell-based. Conditions: Cricetulus griseus.
Experiment [8] deals with TsH1. The experiment in a line: Compound was evaluated for the growth inhibition of TsH1 cells in an enriched eagles minimal essential medium, complete medium at a concentration of 0.01 mg/mL (0.04 mM); Heavy growth. Type of experiment: functional, cell-based. As to conditions: Cricetulus griseus.
In experiment [9] the test system is TsH1. The experiment in a line: Compound was evaluated for the growth inhibition of TsH1 cells in an enriched eagles minimal essential medium, medium lacking aspartic acid and asparagine at a concentration of 0.2 mg/mL (0.93 mM); Cells dead. Type of experiment: functional, cell-based. Conditions: Cricetulus griseus.
For experiment [10], the system named is TsH1. Put plainly: Compound was evaluated for the growth inhibition of TsH1 cells in an enriched eagles minimal essential medium, medium lacking aspartic acid at a concentration of 0.2 mg/mL (0.93 mM); Heavy growth. As to conditions: Cricetulus griseus. Type of experiment: functional, cell-based.
In experiment [11] the test system is TsH1. Put plainly: Compound was evaluated for the growth inhibition of TsH1 cells in an enriched eagles minimal essential medium, medium lacking asparagine at a concentration of 0.2 mg/mL (0.93 mM); Cells dead. Format: functional, cell-based. Conditions: Cricetulus griseus.
The test system of experiment [12] is TsH1. Put plainly: (§1) Compound was evaluated for the growth inhibition of TsH1 cells in an enriched eagles minimal essential medium, medium lacking asparagine at a concentration of 0.04 mg/mL (0.19 mM); Heavy growth. Format: functional, cell-based. As to conditions: Cricetulus griseus.
Experiment [13] deals with TsH1. The experiment is described as §1. As to conditions: Cricetulus griseus. Type of experiment: functional, cell-based. This is another data set of the same source.
Experiment [14] concerns the target T1, Asparagine synthetase [glutamine-hydrolyzing] (Rattus norvegicus) (UniProt P49088).
T1 sequence (whole entry): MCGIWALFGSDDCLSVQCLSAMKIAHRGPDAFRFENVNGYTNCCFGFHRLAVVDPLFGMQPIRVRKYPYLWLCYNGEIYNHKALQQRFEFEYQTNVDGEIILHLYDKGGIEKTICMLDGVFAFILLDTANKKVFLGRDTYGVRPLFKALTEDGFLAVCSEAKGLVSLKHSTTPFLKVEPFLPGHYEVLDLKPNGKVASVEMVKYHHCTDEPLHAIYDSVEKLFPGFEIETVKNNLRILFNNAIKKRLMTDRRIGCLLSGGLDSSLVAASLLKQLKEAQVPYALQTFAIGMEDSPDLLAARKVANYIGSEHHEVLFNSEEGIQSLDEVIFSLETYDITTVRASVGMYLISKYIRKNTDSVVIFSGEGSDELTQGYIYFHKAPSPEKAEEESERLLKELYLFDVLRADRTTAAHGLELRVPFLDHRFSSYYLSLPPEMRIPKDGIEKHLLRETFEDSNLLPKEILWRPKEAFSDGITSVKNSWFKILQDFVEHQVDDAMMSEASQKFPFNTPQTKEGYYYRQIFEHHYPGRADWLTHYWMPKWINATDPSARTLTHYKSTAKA
The experiment in a line: Inhibition of asparagine synthetase from partially purified rat Novikoff hepatoma at a final concentration of 1 mM with.

For experiment [15], the system named is TsH1. The experiment in a line: Compound was evaluated for the growth inhibition of TsH1 cells in an enriched eagles minimal essential medium, medium lacking asparagine at a concentration of 1.0 mg/mL (4.65 mM); Cells dead. Type of experiment: functional, cell-based. Conditions: Cricetulus griseus.
Experiment [16] relates to TsH1. The experiment in a line: Compound was evaluated for the growth inhibition of TsH1 cells in an enriched eagles minimal essential medium, complete medium at a concentration of 0.04 mg/mL (0.19 mM); Heavy growth. Format: functional, cell-based. As to conditions: Cricetulus griseus.
The test system of experiment [17] is TsH1. The experiment in a line: Compound was evaluated for the growth inhibition of TsH1 cells in an enriched eagles minimal essential medium, medium lacking aspartic acid at a concentration of 1.0 mg/mL (4.65 mM); Medium growth. Conditions: Cricetulus griseus. Type of experiment: functional, cell-based.
Experiment [18] concerns TsH1. The experiment in a line: Compound was evaluated for the growth inhibition of TsH1 cells in an enriched eagles minimal essential medium, medium lacking aspartic acid and asparagine at a concentration of 1.0 mg/mL (4.34 mM); Heavy growth. Format: functional, cell-based. As to conditions: Cricetulus griseus.
Experiment [19] has as its system TsH1. The experiment in a line: Compound was evaluated for the growth inhibition of TsH1 cells in an enriched […] at a concentration of 0.2 mg/mL (0.87 mM); Heavy growth. Format: functional, cell-based. As to conditions: Cricetulus griseus.
The subject of experiment [20] is TsH1. Put plainly: Compound was evaluated for the growth inhibition of TsH1 cells in an enriched eagles minimal essential medium, medium lacking aspartic acid and asparagine at a concentration of 0.01 mg/mL (0.01 mM); Heavy growth. Type of experiment: functional, cell-based. Conditions: Cricetulus griseus.
Experiment [21] concerns TsH1. Put plainly: Compound was evaluated for the growth inhibition of TsH1 cells in an enriched eagles minimal essential medium, cmedium lacking aspartic acid at a concentration of 0.04 mg/mL (0.17 mM); Heavy growth. Format: functional, cell-based. As to conditions: Cricetulus griseus.
The subject of experiment [22] is TsH1. The experiment in a line: Compound was evaluated for the growth inhibition of TsH1 cells in an enriched eagles minimal essential medium, medium lacking asparagine at a concentration of 0.01 mg/mL (0.01 mM); Heavy growth. Type of experiment: functional, cell-based. Conditions: Cricetulus griseus.
Experiment [23] has as its system TsH1. Put plainly: Compound was evaluated for the growth inhibition of TsH1 cells in an enriched eagles minimal essential medium, complete medium at a concentration of 0.04 mg/mL (0.17 mM); Heavy growth. Conditions: Cricetulus griseus. Format: functional, cell-based.
The test system of experiment [24] is TsH1. Put plainly: Compound was evaluated for the growth inhibition of TsH1 cells in an enriched eagles minimal essential medium, medium lacking aspartic acid and asparagine at a concentration of 0.04 mg/mL (0.17 mM); Heavy growth. Format: functional, cell-based. Conditions: Cricetulus griseus.
Experiment [25] deals with TsH1. The experiment in a line: Compound was evaluated for the growth inhibition of TsH1 cells in an enriched eagles minimal essential medium, medium lacking aspartic acid at a concentration of 1.0 mg/mL (4.34 mM); Heavy growth. Type of experiment: functional, cell-based. Conditions: Cricetulus griseus.
Experiment [26] addresses T1, Asparagine synthetase [glutamine-hydrolyzing] (Rattus norvegicus). Put plainly: Inhibition of asparagine synthetase from partially purified rat Novikoff hepatoma at a final concentration of 1 mM.
For experiment [27], the system named is TsH1. Put plainly: Compound was evaluated for the growth inhibition of TsH1 cells in an enriched eagles minimal essential medium, medium lacking aspartic acid at a concentration of 0.01 mg/mL (0.01 mM); Heavy growth. Type of experiment: functional, cell-based. Conditions: Cricetulus griseus.
Experiment [28] has as its system TsH1. The experiment in a line: Compound was evaluated for the growth inhibition of TsH1 cells in an enriched eagles minimal essential medium, medium lacking aspartic acid and asparagine at a concentration of 0.2 mg/mL (0.87 mM); Heavy growth. Type of experiment: functional, cell-based. Conditions: Cricetulus griseus.
For experiment [29], the system named is TsH1. Put plainly: Compound was evaluated for the growth inhibition of TsH1 cells in an enriched eagles minimal essential medium, medium lacking asparagine at a concentration of 0.04 mg/mL (0.17 mM); Heavy growth. Format: functional, cell-based. As to conditions: Cricetulus griseus.
The subject of experiment [30] is TsH1. The experiment in a line: Compound was evaluated for the growth inhibition of TsH1 cells in an enriched eagles minimal essential medium, medium lacking asparagine at a concentration of 0.2 mg/mL (0.87 mM); Heavy growth. Format: functional, cell-based. Conditions: Cricetulus griseus.
Experiment [31] relates to TsH1. Put plainly: Compound was evaluated for the growth inhibition of TsH1 cells in an enriched eagles minimal essential medium, medium lacking asparagine at a concentration of 1.0 mg/mL (4.34 mM); Heavy growth. Format: functional, cell-based. As to conditions: Cricetulus griseus.
Experiment [32] deals with TsH1. The experiment in a line: Compound was evaluated for the growth inhibition of TsH1 cells in an enriched eagles minimal essential medium, complete medium at a concentration of 1.0 mg/mL (4.34 mM); Heavy growth. Type of experiment: functional, cell-based. As to conditions: Cricetulus griseus.
Experiment [33] has as its system TsH1. The experiment in a line: Compound was evaluated for the growth inhibition of TsH1 cells in an enriched eagles minimal essential medium, complete medium at a concentration of 0.01 mg/mL (0.01 mM); Heavy growth. Type of experiment: functional, cell-based. As to conditions: Cricetulus griseus.
Experiment [34] relates to TsH1. Put plainly: Compound was evaluated for the growth inhibition of TsH1 cells in an enriched eagles minimal essential medium, complete medium at a concentration of 0.2 mg/mL (0.87 mM); Heavy growth. As to conditions: Cricetulus griseus. Format: functional, cell-based.
Experiment [35] deals with T1, Asparagine synthetase [glutamine-hydrolyzing] (Rattus norvegicus). The experiment in a line: Inhibition of asparagine synthetase from partially purified rat Novikoff hepatoma at a final concentration of 2 mM.

The term inhibition denotes the drop in the measured response relative to a control, in per cent. Higher therefore signals a response far below the control.

Regarding `NC(CNC(=O)C(Cl)Cl)C(=O)O` (stereo not given), the Growth inhibition result in the experiment on TsH1 [1] is “Heavy Growth”; with TsH1 [2], “Heavy Growth”; with TsH1 [3], “Not toxic”; with TsH1 [4], “Heavy Growth”; in the experiment on TsH1 [5] it was “Medium Growth”; with TsH1 [6] it was “Heavy Growth”. In addition, the Growth inhibition entry was “Heavy Growth” in the experiment with TsH1 [7]; “Heavy Growth” with TsH1 [8]; “Not toxic” in the experiment on TsH1 [9]; “Heavy Growth” in the experiment on TsH1 [10]; “Not toxic” in the experiment with TsH1 [11]; “Heavy Growth” in the experiment with TsH1 [12]. Also, the Growth inhibition entry is “Heavy Growth” with TsH1 [13], “Not toxic” with TsH1 [15], “Heavy Growth” in the experiment on TsH1 [16] and “Medium Growth” in the experiment with TsH1 [17]. In addition, the inhibition in experiment [14] turned out to be 18.7%.

As to `CCOC(=O)/C=C/C(=O)NCC(N)C(=O)O` (stereo not given), the Growth inhibition entry in the experiment on TsH1 [18], with TsH1 [19], in the experiment on TsH1 [20], with TsH1 [21], with TsH1 [22] and in the experiment with TsH1 [23] was “Heavy Growth” each time. Further, the Growth inhibition result with TsH1 [24], with TsH1 [25], with TsH1 [27], with TsH1 [28], in the experiment with TsH1 [29] and with TsH1 [30] was “Heavy Growth” in each case. The Growth inhibition result in the experiment on TsH1 [31], in the experiment with TsH1 [32], in the experiment on TsH1 [33] and with TsH1 [34] was “Heavy Growth” throughout. This compound gave an inhibition in [26] of 37.4%.

Compound `NCC(N)C(=O)O` (stereo not given) yielded an inhibition in experiment [35] of 0%.

The values are drawn from ChEMBL document CHEMBL1121869, “Potential inhibitors of L-asparagine biosynthesis. 5. Electrophilic amide analogues of (S)-2,3-diaminopropionic acid” (J Med Chem, 1981).
